{"source": "patent US20090042861A1", "about": "“Prophylactic or Therapeutic Agent for Depression or Anxiety Disorder” (Takeda Pharmaceutical Company Limited, priority 2005, published 2009)", "key": {"male Wister (Jcl) rats [1]": {"system": "male Wister (Jcl) rats", "experiment": "Elevated plus-maze test", "type": "in vivo, rat", "settings": "Example 3", "protocol": "Animal: male Wister (Jcl) rats were purchased at the age of 5 weeks old, and used at the age of 6 weeks old.\nAn elevated plus-maze test equipment having arm 50 cm long by 10 cm wide was used. Its height was 40 cm, and the height of closed arm was adjusted to the same. Black was used as the color of wall. Lighting in experiment room was set to 5 lux of illuminance on the equipment.\nThe animals were handled from 2 days before test. Test was carried out between 8 a.m. and […]., and the animals were naturalized in the conduct test room at a measurement illuminance from 1 hour before the start of test.\nThe drug used (compound A, melatonin) was suspended in 0.5% methylcellulose physiological saline to adjust dosage to 2 mL/kg, and administered intraperitoneally. To the vehicle administration group, a 0.5% methylcellulose physiological saline was administered in the same way.\nIn the elevated plus-maze test, the animal was put in the central region of maze with the head to the direction of closed arm, and the conduct of 5 minutes duration was observed. Measurement items were number of entries into open arms and time spent in open arms which were used as an indicator of anxiety conducts, and it was considered that the more the number of entries into open arms, time spent in open arms and dipping frequency are, the less the anxiety conducts are. Further, the number of entries into closed arms was counted, which was used as an indicator of amount of motor-activity. […] Test was performed with n=10 for each group. Trial was carried out over 2 days, and 2 days' data were summed up as one test.\nSignificant difference test was performed with using Williams' test for vehicle administration group and multigroup drug administration groups."}, "male Wister (Jcl) rats [2]": {"system": "male Wister (Jcl) rats", "experiment": "Water-drinking conflicting test", "type": "in vivo, rat", "settings": "Example 1"}, "male ICR (Jcl) mice": {"system": "male ICR (Jcl) mice", "experiment": "Mouse tail suspension test", "type": "in vivo", "settings": "for moving power at the trial of tail suspension test: FIGS. 9, 10", "protocol": "Action on immobility and moving power in a single application test of Paroxetine and compound A Used Animals: male ICR (Jcl) mice of 6 weeks old were used. Drug Administration Group and Test Method: Test was carried out for the following conditions. (each group n=12)\n(§1) Paroxetine was dissolved in 0.5% methylcellulose physiological saline, and compound A was suspended in 0.5% methylcellulose aqueous solution for injection. To control group, a 0.5% methylcellulose physiological saline for injection was administered as vehicle. A dose of 20 ml/kg was administered intraperitoneally, respectively. Administration was carried out 30 minutes before trial of tail suspension.\nAnimals were put in a 5-row-cage with 8 each cage, and fully habituated. Drug administrations and trials were performed between 13:00 and 17:00.\nAn automated measuring equipment made according to the method of Steru (Psycopharmacology 85, 367-370, 1985) was used for measurement. The mouse was suspended by the tail in a soundproof box (16 cm×38 cm×33 cm) divided individually, and then the immobility rate of 10 minutes duration was measured. Tail suspension was carried out by fixing a 5 cm wire to a sensor and suspending the mouse with fixing its tail with a tape at the end of the wire. By weighing every 10 msec, the movement of the mouse was calculated through A/D converter as moving power for one second. The moving power of less than 1% of body weight of mouse was considered to be in the immobile state, and the immobility rate for every one minute was measured. Test was carried out for 10 minutes, and all the experiments were controlled with personal computer (NEC-9801).\nAction on immobility and moving power in a combined application test of Paroxetine and compound A Used Animals: male ICR (Jcl) mice of 6 weeks old were used. Drug Administration Group and Test Method: Test was carried out for the following conditions. (each group n=15-16)\nas §1, with “vehicle. As a drug solution to be combined, a drug solution having twice concentration of final concentration was prepared, and adjusted to final concentration by mixing equal amounts.” for “vehicle.”"}}, "data": [{"smiles": "CCC(=O)NCC[C@@H]1CCc2ccc3c(c21)CCO3", "note": "[Compound A, (S)-N-[2-(1,6,7,8-Tetrahydro-2H-indeno[5,4-b]furan-8-yl)ethyl]propionamide]", "values": [{"measurement": "time spent in open arms", "setting": "male Wister (Jcl) rats [1]; intraperitoneal, 5 minutes observation, vs vehicle group, FIG. 5", "value": "an increase"}, {"measurement": "number of entries into open arms", "setting": "male Wister (Jcl) rats [1]; intraperitoneal, 5 minutes observation, vs vehicle group, FIG. 6", "value": "an increase"}, {"measurement": "lick frequency", "setting": "male Wister (Jcl) rats [2]; 30 mg/kg intraperitoneally, test 30 minutes after administration, vs vehicle group, Williams' test, FIG. 1", "value": "significant increasing effect"}, {"measurement": "shock frequency", "setting": "male Wister (Jcl) rats [2]; 30 mg/kg intraperitoneally, test 30 minutes after administration, vs vehicle group, Williams' test, FIG. 2", "value": "significant increasing effect"}, {"measurement": "immobility", "setting": "male ICR (Jcl) mice; Example 4, single application, 3, 10 and 30 mg/kg (i.p.), 30 minutes before trial, FIGS. 7, 8", "value": "didn't have an affect"}, {"measurement": "moving power at the trial of tail suspension test", "setting": "male ICR (Jcl) mice; Example 4, single application, 3, 10 and 30 mg/kg (i.p.)", "value": "didn't have an affect"}, {"measurement": "effect on the antidepressant action of Paroxetine", "setting": "male ICR (Jcl) mice; Example 5, Compound A 1, 3 and 10 mg/kg with Paroxetine 1 mg/kg (i.p.)", "value": "enhances the antidepressant action of Paroxetine"}]}, {"smiles": "CN1C(=O)CN=C(c2ccccc2)c2cc(Cl)ccc21", "note": "[Diazepam]", "values": [{"measurement": "effect in this system (control drug)", "setting": "male Wister (Jcl) rats [1]; control drug, dose not given", "value": "exhibits an effect"}, {"measurement": "effect in this system (control drug)", "setting": "male Wister (Jcl) rats [2]; control drug, dose not given", "value": "exhibits an effect"}]}, {"smiles": "Fc1ccc([C@@H]2CCNC[C@H]2COc2ccc3c(c2)OCO3)cc1", "note": "[Paroxetine]", "values": [{"measurement": "moving power at the trial of tail suspension test", "setting": "male ICR (Jcl) mice; Example 4, single application, 0.3, 1, 3 and 10 mg/kg (i.p.), vs vehicle group", "value": "increase a little"}]}, {"smiles": "COc1ccc2[nH]cc(CCNC(C)=O)c2c1", "note": "[melatonin]", "values": [{"measurement": "action in elevated plus-maze (open arm entries and time)", "setting": "male Wister (Jcl) rats [1]; intraperitoneal, vs vehicle group, Williams' test", "value": "a significant action was not observed"}, {"measurement": "anti-conflicting effect", "setting": "male Wister (Jcl) rats [2]; 30 mg/kg intraperitoneally, test 30 minutes after administration, vs vehicle group, Williams' test", "value": "a little anti-conflicting effect was observed, but it was not a significant effect"}]}]}
